In US20110146678A1, “PROCESS FOR IMPROVING CRYSTALLINITY” (priority 2008, published 2011):

What was measured:
Assay type in all cases: physicochemical
[1] = Particle size by Sympatec HELOS laser diffraction / optical microscopy; details: for D(10) / D(50) / D(90): Sympatec HELOS laser diffraction
From the text: The particle size can be measured by laser diffraction techniques: Light from a laser is shone into a cloud of particles, which are suspended in a transparent gas such as air. The particles scatter the light; smaller particles scattering the light at larger angles than bigger particles. The scattered light can be measured by a series of photodetectors placed at different angles. This is known as the diffraction pattern for the sample. The diffraction pattern can be used to measure the size of the particles using well documented light scattering theory. The particles are assumed to be spherical but few particles are actually spherical. The particle diameters are calculated from the measured volume of the particle, but assume a sphere of equivalent volume.
Budesonide (5 g) was dissolved in 100 mL of dichloromethane. The samples of budesonide powder collected in the ultrasonic chamber were produced using a Büchi-290 laboratory-scale spray dryer […], Büchi, Switzerland). The solution was atomized using nitrogen at 7 bar flowing at approximately at 10 Lpm (Litre/minute). The aspirator was set at 100% and flow rate of solution was set to […]. The gas temperature was set to 120° C. Budesonide particles were collected the ultrasonic chamber connected to the end of high performance cyclone separator. In order to apply ultrasound to the spray dried particles, the collection ultrasonic chamber was filled with heptane thermoregulated at 25° C. and was fitted with an ultrasonic probe resonating at 20 kHz. Ultrasound at 20 W power was applied between 30 minutes and 1 hour. The resulting particle slurry was spray dried and particles characterized by optical microscopy and DSC (Differential Scanning calorimetry). The size of the particles were typically in the range of 1-7 μm.
The D(10), D(50), D(90) for two representative samples were 1.21, 3.03, 4.63 μm and 1.05, 2.99, 3.76 μm respectively as determined by Sympatec HELOS laser diffraction. […]

[2] = Storage stability of FPF of binary DPI formulations at 25° C./75% RH
Description: All formulations were stored for one and three months at 25° C./75% RH. The FPF of the formulation containing micronized fluticasone propionate decreased by almost 50% after storage for one month and almost 70% after storage for three months compared to the FPF at t=0. However, the FPF of formulations containing particles prepared by the current invention were not as affected following storage in stress conditions. The FPF of sample 3 decreased 6% after storage for one month and decreased 3% after storage for three months compared to the FPF at t=0. The FPF of sample 2 decreased 7% after one months storage and 28% after three months storage compared to the FPF at t=0. There was a small yet statistically significant decrease, 29%, in the fine particle fraction of the formulation containing sample 4 which was prepared by alternative precipitation approach after one month with a decrease of 24% after 3 months storage compared to the FPF at t=0. This may be related to the planar morphology of the particles, and therefore, the particles are likely to develop greater adhesion to the lactose as result of capillary forces. It is clear that the FPF of samples 2 and 3 maintained a higher FPF than the micronized sample or sample 4 when stored for one or three months in the conditions described. The FPF of samples 2 and 3 decreased by a smaller percentage than the micronized sample when stored for one or three months in the conditions described. […] Sample 4 has a much lower FPF than samples 2 and 3 after storage for one or three months.

[3] = Surface roughness by TappingMode AFM; details: 1 μm×1 μm areas, SD in brackets; for Ra(± nm): mean surface roughness; for Rq(± nm): root mean square roughness
Description: The degree of corrugation and surface morphology of samples was quantified using AFM. The surface topography and roughness measurements of particles of this invention were investigated using a Nanoscope IIIa controller, a Multimode AFM and a J-type scanner (all DI, Santa Babara, Calif., USA). All AFM surface topography images were recorded in Tapping Mode operation, in which, imaging was conducted using TESP Olympus tips (Di, Cambridge, UK) at a scan rate of 1 Hz. Surface roughness measurements were analysed over a 1 μm×1 μm area. To quantify the variations in the surface properties of the crystal surfaces, the root-mean-squared surface roughness measurement (Rq) and the mean surface roughness (Ra) of the height deviations of the surface asperities were computed.
The surface roughness and surface area of micronized Fluticasone Propionate (FP), sample 3 of FP prepared by the current invention and sample 4 of FP, as described in Example 2, were determined using atomic force microscopy (AFM) and BET surface area analysis, respectively. The roughness of imaged areas was quantified using the mean (Ra) and root mean square (Rq) of the variations in the height of the imaged surface. Furthermore, the surface area of samples was determined by a five-point BET nitrogen adsorption analysis.
The surface topography of the FP samples was investigated with TappingMode™ atomic force microscopy (AFM) using a Multimode AFM, J-type scanner, Nanoscope IIIa controller (all from DI, Cambridge, UK) and a silicon tip (model number OMCL-AC240TS, Olympus, Japan) to image three randomly selected 1 μm×1 μm square areas on the surface of particles of each material with a resolution of 512×512 pixels and a scan rate of 1 Hz. The roughness of imaged areas was quantified using the mean (Ra) and root mean square (Rq) of the variations in the height of the imaged surface, as calculated by the AFM software using the following equations: […]
where np is the number of points in the image and yi is the distance of point i from the centre line.

[4] = storage one month at 25° C./75% RH
[5] = storage three months at 25° C./75% RH

SMILES	D(10) [1] [μm]	D(50) [1] [μm]	D(90) [1] [μm]	decrease of FPF compared to FPF at t=0 [2, 4] [%]	decrease of FPF compared to FPF at t=0 [2, 5] [%]	Ra(± nm) [3]	Rq(± nm) [3]	size of the particles, typical range ([1]; after ultrasound treatment and spray drying of slurry)	decrease of FPF compared to FPF at t=0 ([2]; storage one month at 25° C./75% RH, listed as micronized fluticasone propionate) [%]	decrease of FPF compared to FPF at t=0 ([2]; storage three months at 25° C./75% RH, listed as micronized fluticasone propionate) [%]
CCC(=O)O[C@]1(C(=O)SCF)[C@H](C)C[C@H]2[C@@H]3C[C@H](F)C4=CC(=O)C=C[C@]4(C)[C@@]3(F)[C@@H](O)C[C@@]21C [Sample 3, Fluticasone propionate]	0.99	2.55	4.97	6	3	53.79 (2.11) nm	72.11 (1.35) nm	–	–	–
CCC(=O)O[C@]1(C(=O)SCF)[C@H](C)C[C@H]2[C@@H]3C[C@H](F)C4=CC(=O)C=C[C@]4(C)[C@@]3(F)[C@@H](O)C[C@@]21C [Sample 2, Fluticasone propionate]	1.35	3.25	5.63	7	28	–	–	1-6 μm	–	–
CCC(=O)O[C@]1(C(=O)SCF)[C@H](C)C[C@H]2[C@@H]3C[C@H](F)C4=CC(=O)C=C[C@]4(C)[C@@]3(F)[C@@H](O)C[C@@]21C [micronized FP, Fluticasone Propionate]	–	–	–	–	–	30.97 (12.25) nm	45.07 (11.76) nm	–	~50	~70
CCC(=O)O[C@]1(C(=O)SCF)[C@H](C)C[C@H]2[C@@H]3C[C@H](F)C4=CC(=O)C=C[C@]4(C)[C@@]3(F)[C@@H](O)C[C@@]21C [Sample 4, fluticasone propionate, reference compound]	1.14	2.67	5.11	29	24	11.20 (1.55) nm	16.52 (3.13) nm	–	–	–
